Results from patent US20090118274A1, “MONOCYCLIC AMINOPROPYL TETRAHYDRO-PYRAZOLO-PYRIDINE MODULATORS OF CATHEPSIN S” (priority 2007, published 2009).

What follows are compounds tested against T1, Recombinant human cathepsin S (CatS) (Homo sapiens, UniProt P25774) (assay: Recombinant human cathepsin S (CatS) fluorogenic substrate inhibition assay). Conditions: not given.
T1 construct: made in house
Type: biochemical
Experimental: Recombinant human cathepsin S (CatS) was expressed in the baculovirus system and purified in one step with a thiopropyl-sepharose column. […] The assay is run in 150 mM sodium acetate pH 5.0 containing 1.5 mM DTT and 150 mM NaCl. […] Measurements are taken every min for 20 min. The rate is calculated from the slope of the increase in fluorescence and the percent inhibition is calculated from this.

T1 sequence (P25774 115-331): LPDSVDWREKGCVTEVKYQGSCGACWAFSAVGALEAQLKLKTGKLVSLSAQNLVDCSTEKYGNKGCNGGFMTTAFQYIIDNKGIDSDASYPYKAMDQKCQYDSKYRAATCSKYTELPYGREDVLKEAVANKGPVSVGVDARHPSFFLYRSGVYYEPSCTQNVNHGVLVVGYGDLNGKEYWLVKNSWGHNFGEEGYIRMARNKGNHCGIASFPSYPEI

Row | IC50 | Structure (SMILES)
1 | 200 nM | CS(=O)(=O)N1CCc2c(c(-c3ccc(Cl)c(CNC(=O)c4ccc(F)cc4)c3)nn2CC(O)CN2CCC2)C1 (centres unmarked) [Example 73, N-{5-[1-(3-Azetidin-1-yl-2-hydroxy-propyl)-5-methanesulfonyl-4,5,6,7-tetrahydro-1H-pyrazolo[4,3-c]pyridin-3-yl]-2-chloro-benzyl}-4-fluoro-benzamide]
2 | 450 nM | CC(C)CC(=O)NCc1cc(-c2nn(CC(O)CN3CCC(N(C)C)C3)c3c2CN(S(C)(=O)=O)CC3)ccc1C(F)(F)F (centres unmarked) [Example 249, N-(5-{1-[3-(3-Dimethylamino-pyrrolidin-1-yl)-2-hydroxy-propyl]-5-methanesulfonyl-4,5,6,7-tetrahydro-1H-pyrazolo[4,3-c]pyridin-3-yl}-2-trifluoromethyl-benzyl)-3-methyl-butyramide]

Row | Structure (SMILES) | IC50
3 | CS(=O)(=O)N1CCc2c(c(-c3ccc(C(F)(F)F)c(CNC(=O)Oc4ccccc4)c3)nn2CC(O)CN2CCCC2)C1 (centres unmarked) [Example 116, {5-[1-(2-Hydroxy-3-pyrrolidin-1-yl-propyl)-5-methanesulfonyl-4,5,6,7-tetrahydro-1H-pyrazolo[4,3-c]pyridin-3-yl]-2-trifluoromethyl-benzyl}-carbamic acid phenyl ester] | 520 nM

Same assay, conditions: average of results obtained; substrate Z-Valine-Valine-Arginine-AMC 10 μM, pH 5.0; read-out: CatS IC50

Row | IC50 | Structure (SMILES)
4 | 290 nM | CS(=O)(=O)N1CCc2c(c(-c3ccc(C(F)(F)F)c(CNC(=O)c4cccc(C#N)c4)c3)nn2CC(O)CN2CCCC2)C1 (centres unmarked) [Example 159, 3-Cyano-N-{5-[1-(2-hydroxy-3-pyrrolidin-1-yl-propyl)-5-methanesulfonyl-4,5,6,7-tetrahydro-1H-pyrazolo[4,3-c]pyridin-3-yl]-2-trifluoromethyl-benzyl}-benzamide]
5 | 780 nM | CS(=O)(=O)N1CCc2c(c(-c3ccc(C(F)(F)F)c(CNC(=O)c4ccc(Cl)c(Cl)c4)c3)nn2CC(O)CN2CCCC2)C1 (centres unmarked) [Example 229, 3,4-Dichloro-N-{5-[1-(2-hydroxy-3-pyrrolidin-1-yl-propyl)-5-methanesulfonyl-4,5,6,7-tetrahydro-1H-pyrazolo[4,3-c]pyridin-3-yl]-2-trifluoromethyl-benzyl}-benzamide]
6 | 950 nM | CN(C)c1ccccc1C(=O)NCc1cc(-c2nn(CC(O)CN3CCCC3)c3c2CN(S(C)(=O)=O)CC3)ccc1C(F)(F)F (centres unmarked) [Example 239, 2-Dimethylamino-N-{5-[1-(2-hydroxy-3-pyrrolidin-1-yl-propyl)-5-methanesulfonyl-4,5,6,7-tetrahydro-1H-pyrazolo[4,3-c]pyridin-3-yl]-2-trifluoromethyl-benzyl}-benzamide]
7 | 90 nM | CC(C)CC(=O)NCc1cc(-c2nn(CC(O)CN3CCC(C(C)(C)C)CC3)c3c2CN(S(C)(=O)=O)CC3)ccc1C(F)(F)F (centres unmarked) [Example 289, N-(5-{1-[3-(4-tert-Butyl-piperidin-1-yl)-2-hydroxy-propyl]-5-methanesulfonyl-4,5,6,7-tetrahydro-1H-pyrazolo[4,3-c]pyridin-3-yl}-2-trifluoromethyl-benzyl)-3-methyl-butyramide]
8 | 260 nM | CS(=O)(=O)N1CCc2c(c(-c3ccc(C(F)(F)F)c(CNC(=O)c4ccc(O)cc4)c3)nn2CC(O)CN2CCCC2)C1 (centres unmarked) [Example 156, 4-Hydroxy-N-{5-[1-(2-hydroxy-3-pyrrolidin-1-yl-propyl)-5-methanesulfonyl-4,5,6,7-tetrahydro-1H-pyrazolo[4,3-c]pyridin-3-yl]-2-trifluoromethyl-benzyl}-benzamide]
9 | 1630 nM | CS(=O)(=O)N1CCc2c(c(-c3ccc(C(F)(F)F)c(CNCc4ccccc4)c3)nn2CC(O)CN2CCCC2)C1 (centres unmarked) [Example 205, 1-{3-[3-(Benzylamino-methyl)-4-trifluoromethyl-phenyl]-5-methanesulfonyl-4,5,6,7-tetrahydro-pyrazolo[4,3-c]pyridin-1-yl}-3-pyrrolidin-1-yl-propan-2-ol]
10 | 520 nM | CS(=O)(=O)N1CCc2c(c(-c3ccc(C(F)(F)F)c(CNC(=O)c4ccc([N+](=O)[O-])cc4)c3)nn2CC(O)CN2CCCC2)C1 (centres unmarked) [Example 212, N-{5-[1-(2-Hydroxy-3-pyrrolidin-1-yl-propyl)-5-methanesulfonyl-4,5,6,7-tetrahydro-1H-pyrazolo[4,3-c]pyridin-3-yl]-2-trifluoromethyl-benzyl}-4-nitro-benzamide]

Second part, the compound before the results:

Row | Structure (SMILES) | IC50
11 | CS(=O)(=O)N1CCc2c(c(-c3ccc(C(F)(F)F)c(CNC(=O)c4ccc(F)cc4)c3)nn2CC(O)CN2CCN(CCO)CC2)C1 (centres unmarked) [Example 98, 4-Fluoro-N-[5-(1-{2-hydroxy-3-[4-(2-hydroxy-ethyl)-piperazin-1-yl]-propyl}-5-methanesulfonyl-4,5,6,7-tetrahydro-1H-pyrazolo[4,3-c]pyridin-3-yl)-2-trifluoromethyl-benzyl]-benzamide] | 280 nM
12 | CC(C)(C)OC(=O)NC1CCN(CC(O)Cn2nc(-c3ccc(Cl)c(CNC(=O)c4ccc(F)cc4)c3)c3c2CCN(S(C)(=O)=O)C3)CC1 (centres unmarked) [Example 78, {1-[3-(3-{4-Chloro-3-[(4-fluoro-benzoylamino)-methyl]-phenyl}-5-methanesulfonyl-4,5,6,7-tetrahydro-pyrazolo[4,3-c]pyridin-1-yl)-2-hydroxy-propyl]-piperidin-4-yl}-carbamic acid tert-butyl ester] | 30 nM
13 | CS(=O)(=O)N1CCc2c(c(-c3ccc(Cl)c(CNC(=O)c4ccc(F)cc4)c3)nn2CC(O)CN2CCCC(C(N)=O)C2)C1 (centres unmarked) [Example 81, 1-[3-(3-{4-Chloro-3-[(4-fluoro-benzoylamino)-methyl]-phenyl}-5-methanesulfonyl-4,5,6,7-tetrahydro-pyrazolo[4,3-c]pyridin-1-yl)-2-hydroxy-propyl]-piperidine-3-carboxylic acid amide] | 170 nM
14 | CS(=O)(=O)N1CCc2c(c(-c3ccc(Cl)c(COCc4ccccc4)c3)nn2CCCN2CCCC2)C1 [Example 71, 3-(3-Benzyloxymethyl-4-chloro-phenyl)-5-methanesulfonyl-1-(3-pyrrolidin-1-yl-propyl)-4,5,6,7-tetrahydro-1H-pyrazolo[4,3-c]pyridine] | 1950 nM
15 | CC(C)=CC(=O)NCc1cc(-c2nn(CC(O)CN3CCC(O)CC3)c3c2CN(S(C)(=O)=O)CC3)ccc1C(F)(F)F (centres unmarked) [Example 154, 3-Methyl-but-2-enoic acid 5-{1-[2-hydroxy-3-(4-hydroxy-piperidin-1-yl)-propyl]-5-methanesulfonyl-4,5,6,7-tetrahydro-1H-pyrazolo[4,3-c]pyridin-3-yl}-2-trifluoromethyl-benzylamide] | 90 nM
16 | CS(=O)(=O)N1CCc2c(c(-c3ccc(C(F)(F)F)c(CNC(=O)c4ccc(F)cc4)c3)nn2CC(O)CN2CCCC(O)C2)C1 (centres unmarked) [Example 92, 4-Fluoro-N-(5-{1-[2-hydroxy-3-(3-hydroxy-piperidin-1-yl)-propyl]-5-methanesulfonyl-4,5,6,7-tetrahydro-1H-pyrazolo[4,3-c]pyridin-3-yl}-2-trifluoromethyl-benzyl)-benzamide] | 170 nM
17 | CS(=O)(=O)N1CCc2c(c(-c3ccc(C(F)(F)F)c(CNC(=O)c4ccc(F)cc4)c3)nn2CC(O)CN2CCCCC2)C1 (centres unmarked) [Example 24, 4-Fluoro-N-{5-[1-(2-hydroxy-3-piperidin-1-yl-propyl)-5-methanesulfonyl-4,5,6,7-tetrahydro-1H-pyrazolo[4,3-c]pyridin-3-yl]-2-trifluoromethyl-benzyl}-benzamide] | 250 nM
18 | CC(=O)NC1CCN(CC(O)Cn2nc(-c3ccc(Cl)c(CNC(=O)c4ccc(F)cc4)c3)c3c2CCN(S(C)(=O)=O)C3)CC1 (centres unmarked) [Example 13, N-(5-{1-[3-(4-Acetylamino-piperidin-1-yl)-2-hydroxy-propyl]-5-methanesulfonyl-4,5,6,7-tetrahydro-1H-pyrazolo[4,3-c]pyridin-3-yl}-2-chloro-benzyl)-4-fluoro-benzamide] | 40 nM
19 | CS(=O)(=O)N1CCc2c(c(-c3ccc(C(F)(F)F)c(CNC(=O)c4ccc(F)cc4)c3)nn2CC(O)CN2CCC(O)C2)C1 (centres unmarked) [Example 27, 4-Fluoro-N-(5-{1-[2-hydroxy-3-(3-hydroxy-pyrrolidin-1-yl)-propyl]-5-methanesulfonyl-4,5,6,7-tetrahydro-1H-pyrazolo[4,3-c]pyridin-3-yl}-2-trifluoromethyl-benzyl)-benzamide] | 230 nM
20 | CS(=O)(=O)N1CCc2c(c(-c3ccc(Cl)c(CNC(=O)c4ccc(Cl)cc4)c3)nn2CCCN2CCCC2)C1 [Example 86, 4-Chloro-N-{2-chloro-5-[5-methanesulfonyl-1-(3-pyrrolidin-1-yl-propyl)-4,5,6,7-tetrahydro-1H-pyrazolo[4,3-c]pyridin-3-yl]-benzyl}-benzamide] | 960 nM
21 | CS(=O)(=O)N1CCc2c(c(-c3ccc(C(F)(F)F)c(CNC(=O)c4ccc(F)cc4)c3)nn2CC(O)CN2CCNC(=O)C2)C1 (centres unmarked) [Example 19, 4-Fluoro-N-(5-{1-[2-hydroxy-3-(3-oxo-piperazin-1-yl)-propyl]-5-methanesulfonyl-4,5,6,7-tetrahydro-1H-pyrazolo[4,3-c]pyridin-3-yl}-2-trifluoromethyl-benzyl)-benzamide] | 330 nM
22 | CC(=O)Nc1cccc(C(=O)NCc2cc(-c3nn(CC(O)CN4CCCC4)c4c3CN(S(C)(=O)=O)CC4)ccc2C(F)(F)F)c1 (centres unmarked) [Example 59, 3-Acetylamino-N-{5-[1-(2-hydroxy-3-pyrrolidin-1-yl-propyl)-5-methanesulfonyl-4,5,6,7-tetrahydro-1H-pyrazolo[4,3-c]pyridin-3-yl]-2-trifluoromethyl-benzyl}-benzamide] | 500 nM
23 | CS(=O)(=O)N1CCc2c(c(-c3ccc(C(F)(F)F)c(CNS(=O)(=O)Cc4ccccc4)c3)nn2CCCN2CCC3(CCNC3=O)CC2)C1 [Example 67, N-(5-{5-Methanesulfonyl-1-[3-(1-oxo-2,8-diaza-spiro[4.5]dec-8-yl)-propyl]-4,5,6,7-tetrahydro-1H-pyrazolo[4,3-c]pyridin-3-yl}-2-trifluoromethyl-benzyl)-C-phenyl-methanesulfonamide] | 2200 nM
